This note sets out measurements from US6780853B1, “Neuroactive steroids of the androstane and pregnane series” (priority 1995, dated 2004).

Each structure is given as a SMILES string. Counter-ions that a name gives are not always drawn.

The target in experiment [1] is GABA receptor complex (GRC). Nature of the experiment: [35S]TBPS binding in rat cerebral cortex P2 homogenate. To be noted: for IC50: concentration to inhibit 50% of control [35S]TBPS binding, 2 nM [35S]TBPS; for IMAX (maximum inhibition): maximum inhibition of [35S]TBPS binding. The source says:
To those skilled in the art, it is known that the modulation of [^35S]t-butylbicyclophosphorothionate ([^35S]TBPS) binding is a measure of the potency and efficacy of drugs acting at the GRC, which drugs may be of potential therapeutic value in the treatment of stress, anxiety, and seizure disorders (Squires, R. F., et al., Mol, Pharmacol., 23:326 (1983); Lawrence, L. J., et al., Biochem. Biophys. Res. Comm., 123:1130-1137 (1984); Wood, et al., Pharmacol, Exp. Ther., 231:572-576 (1984)). Several experiments were performed previously to determine the nature of the modulation of [^35S]TBPS as affected by neuroactive steroids. […] Furthermore, these compounds have high potency and efficacy at the GRC, with stringent structural requirements for such activity.
The procedures for performing this assay are fully discussed in: (1) Gee, K. W. et al., European Journal of Pharmacology, 136:419-423 (1987)); and (2) Gee, et al., Molecular Pharmacology 30:218 (1986). These procedures were performed as follows:
Brains from male Sprague-Dawley rats were removed immediately following sacrifice and the cerebral cortices dissected over ice. A P2 homogenate was prepared as previously described (Gee, et al., Molecular Pharmacology 30:218 (1986)). Briefly, the cortices were gently homogenized in 032 M sucrose followed by centrifugation at 1000×g for 10 minutes. The supernatant was collected and centrifuged at 9000×g for 20 minutes. The resultant P2 pellet was suspended as a 10% (original wet weight/volume) suspension in 50 mM Na/K phosphate buffer (pH 7.4) 200 mM NaCl to form the homogenate.
One hundred microliter […] aliquots of the P2 homogenate (0.5 milligrams (mg) protein) were incubated with 2 nanomolar (nM) [^35S]TBPS (70-110 curies/millimole; New England Nuclear, Boston, Mass.) in the presence or absence of the naturally occurring steroids or their synthetic derivatives to be tested. The tested compounds were dissolved in dimethylsulfoxide (Baker Chem. Co., Phillipsburg, N.J.) and added to the incubation mixture in 5 μL aliquots. The incubation mixture was brought to a final volume of 1 mL with buffer. Non-specific binding was defined as binding in the presence of […]. The effect and specificity of GABA (Sigma Chem. Co., St. Louis, Mo.) was evaluated by performing all assays in the presence of GABA plus (+)bicuculline (Sigma Chem. Co.). Incubations maintained at 25° C. for 90 minutes (steady state conditions) were terminated by rapid filtration through glass fiber filters (No. 32, Schleicher and Schuell, Keene, N.H.). Filter-bound radioactivity was quantitated by liquid scintillation spectrophotometry. Kinetic data and compound/[^35S]TBPS dose-response curves were analyzed by nonlinear regression using a computerized iterative procedure to obtain rate constants and IC50 (concentration of compound at which half-maximal inhibition of basal [^35S]TBPS binding occurs) values.
Various compounds were screened to determine their potential as modulators of [^35S]TBPS binding in vitro. These assays were performed in accordance with the above discussed procedures. Based on these assays, we have established the structure-activity requirements for their specific interaction at the GRC and their rank order potency and efficacy. Experimental data obtained in this assay for a number of 3α-hydroxypregnan-20-one derivatives is discussed in Gee, K. W. et al., European Journal of Pharmacology, 136:419-423 (1987) and in U.S. Pat. No. 5,232,917. Table 1 provides IC50 and maximum inhibition (IMAX) measurements for numerous compounds, including examples of compounds disclosed and claimed herein. IC50 is defined as concentration of compounds to inhibit 50% of control [^35S]TBPS binding. It is an indication of a compound's in vitro potency. Maximum inhibition is an indication of a compound's in vitro efficacy.

In experiment [2] the test system is metrazol induced convulsions. Nature of the experiment: Antimetrazol activity in mice. Type of experiment: in vivo. To be noted: 10 mg/kg. Here is the method:
Experiments were also performed to determine the physiological relevance of neuroactive steroid and GABA receptor interactions by assessing the ability of compounds of the present invention to prevent metrazol induced convulsions in mice. Mice were injected with various doses of the test compounds of the invention, 10 minutes prior to the injection of metrazol. The time to onset of myoclonus (presence of forelimb clonic activity) induced by metrazol was determined by observing each mouse for a period of 30 minutes. In control mice, metrazol (85 mg/kg) will induce convulsion in 95% of the animals.
The anticonvulsant tests are similar to that described above.

Setting [3] is: IP, 50% hpbcd, 10 min before metrazol 85 mg/kg.

In the case of `CC12CCC(O)(C#CCCO)CC1CCC1C2CCC2(C)C(C(=O)CSc3ccncc3)CCC12` (stereo not drawn) [3α-Hydroxy-3β-(4-hydroxybutynyl)-21-(pyrid-4-ylthio)-5β-pregnan-20-one], in experiment [1], the IC50 (as a rule, the concentration at which inhibition is half-maximal) worked out at 0.015 µM and the “IMAX (maximum inhibition)” value is on record as 100%. For the same compound, the “% Protected” value in experiment [2] (setting [3]) amounted to 50%.

As for `COC1CCC2C3CCC4CC(O)(C#CCCO)CCC4(C)C3CCC12C` (stereo not drawn) [3α-Hydroxy-3β-(4′-hydroxybutyn-1-yl)-17α-methoxy-5β-androstane], in experiment [2] (setting [3]), the “% Protected” value stood at 50%.

`C#CCC1(O)CCC2(C)C(CCC3C2CCC2(C)C(OC)CCC32)C1` (stereo not drawn) [3α-Hydroxy-17β-methoxy-3β-(2-propynyl)-5α-androstane]: in experiment [1], the IC50 turned out to be 0.387 µM and the “IMAX (maximum inhibition)” value is given as 101%. In addition, in experiment [2] (setting [3]), the “% Protected” value is 12.5%.

Take `COC1CCC2C3CCC4CC(O)(C#CCCO)CCC4(C)C3CCC12C` (stereo not drawn) [3β-(4′-Hydroxybutyn-1′yl)-3α-hydroxy-17β-methoxy-5β-androsta] [3β-(4′-Hydroxy-1-′-butynyl)-3α-hydroxy-17β-methoxy-5β-androstane]: in experiment [1], the half-maximal inhibitory concentration (IC50) was 0.026 µM and the “IMAX (maximum inhibition)” value was 105%. Besides, the “% Protected” value in experiment [2] (IP, 50% hpbcd, 10 min before metrazol 85 mg/kg, listed as 3α-Hydroxy-3β-(4′-hydroxybutyn-1-yl)-17β-methoxy-5β-androstane) is reported as 75%.

For the compound `COC1CCC2C3CCC4CC(O)(CCl)CCC4(C)C3CCC12C` (stereo not drawn) [3β-Chloromethyl-3α-hydroxy-17β-methoxy-5α-androstane], in experiment [1], the IC50 was determined as 0.361 µM and the “IMAX (maximum inhibition)” value stood at 98%. In experiment [2] (setting [3]), the “% Protected” value was found to be 12.5%.

For `C#CC1(O)CCC2(C)C(CCC3C2CCC2(C)C(C(=O)C[S+]([O-])CCCO)CCC32)C1` (stereo not drawn) [3β-Ethynyl-3α-hydroxy-21-hydroxpropylsulfinyl-5β-pregnan-20-one], in experiment [1], the half-inhibitory concentration (IC50) was 0.782 µM and the “IMAX (maximum inhibition)” value amounted to 107%.

For `C#C[C@@]1(O)CC[C@@]2(C)[C@H](CC[C@@H]3[C@@H]2CC[C@]2(C)[C@@H](C(=O)CSCCO)CC[C@@H]32)C1` [3β-Ethynyl-3α-hydroxy-21-hydroxyethylthio-5β-pregnan-20-one], in experiment [1], the IC50 was determined as 0.18 µM and the “IMAX (maximum inhibition)” value was 103%.

For the compound `C#C[C@@]1(O)CC[C@@]2(C)[C@H](CC[C@@H]3[C@@H]2CC[C@]2(C)[C@@H](C(=O)CS(=O)(=O)CCCO)CC[C@@H]32)C1` [3β-Ethynyl-3α-hydroxy-21-hydroxypropylsulfonyl-5β-pregnan-20-one], in experiment [1], the IC50 is 0.194 µM and the “IMAX (maximum inhibition)” value was determined as 107%.

Take `C#CC1(O)CCC2(C)C(CCC3C2CCC2(C)C(C(=O)CSCCCOS(=O)(=O)O)CCC32)C1` (stereo not drawn) [3β-Ethynyl-3α-hydroxy-21-thiopropanesulfate-5β-pregnan-20-one sodium salt]: in experiment [1], the IC50 came to 0.113 µM and the “IMAX (maximum inhibition)” value turned out to be 104%.

With `CC(=O)[C@H]1CC[C@H]2[C@@H]3CC[C@H]4C[C@@H](O)CC[C@]4(C)[C@H]3CC[C@]12C` [3β-Hydroxy-5α-pregnan-20-one, reference compound], in experiment [1], the IC50 was above 1000 µM and the “IMAX (maximum inhibition)” value came out at 33%.

On to `C#C[C@@]1(O)CC[C@@]2(C)[C@@H](CC[C@@H]3[C@@H]2CC[C@]2(C)[C@@H](C(=O)CSc4ccncc4)CC[C@@H]32)C1` [3β-ethynyl-3α-hydroxy-21-(pyrid-4-ylthio)-5α-pregnan-20-one], for which, in experiment [1], the IC50 amounted to 0.043 µM and the “IMAX (maximum inhibition)” value was found to be 103%.

Turning to `C#C[C@@]1(O)CC[C@@]2(C)[C@H](CC[C@@H]3[C@@H]2CC[C@]2(C)[C@@H](C(=O)CSCCCO)CC[C@@H]32)C1` [3β-ethynyl-3α-hydroxy-21-hydroxypropylthio-5β-pregnan-20-one], in experiment [1], the 50% inhibitory concentration (IC50) turned out to be 0.093 µM and the “IMAX (maximum inhibition)” value is 97%.

For `C#CC1(O)CCC2(C)C(CCC3C2CCC2(C)C(C(=O)CSCCOS(=O)(=O)O)CCC32)C1` (stereo not drawn) [3β-ethynyl-3α-hydroxy-21-thioethanesulfate-5β-pregnan-20-one trimethyl ammonium salt], in experiment [1], the IC50 amounted to 0.322 µM and the “IMAX (maximum inhibition)” value was found to be 101%.

As to `C#CC1(O)CCC2(C)C(CCC3C2CCC2(C)C(C(=O)CSCCCS(=O)(=O)O)CCC32)C1` (stereo not drawn) [3β-ethynyl-3α-hydroxy-21-thiopropanesulfonate-5β-pregnan-20-one sodium salt], in experiment [1], the IC50 is 0.343 µM and the “IMAX (maximum inhibition)” value is reported as 97%.

Consider `C#CC1(O)CCC2(C)C(CCC3C2CCC2(C)C(C(=O)CSCCC(=O)O)CCC32)C1` (stereo not drawn) [3β-ethynyl-3α-hydroxy-21-thiopropanoate-5β-pregnan-20-one sodium salt], for which, in experiment [1], the IC50 was found to be 1.02 µM and the “IMAX (maximum inhibition)” value stood at 101%.

`C[C@]12C[C@H](O)[C@H]3[C@@H](CCC4=CC(=O)CC[C@@]43C)[C@@H]1CC[C@@H]2C(=O)CO` [4-Pregnan-11β,21-diol-3,20-dione, reference compound]: in experiment [1], the IC50 is above 1000 µM and the “IMAX (maximum inhibition)” value was found to be 30%.

For `C[C@]12CC[C@@H]3c4ccc(O)cc4CC[C@H]3[C@@H]1CC[C@@H]2O` [17β-Estradiol, reference compound], the “IMAX (maximum inhibition)” value in experiment [1] amounted to 0%.

Take `CC1(C2CCC3C4CCC5CC(O)(C(F)(F)F)CCC5C4CCC32C)OC(C(=O)[O-])C(C(=O)[O-])O1.[K+].[K+]` (stereo not drawn) [20,20-[2′,3′-Bis(carboxy)ethylenedioxy]-3α-hydroxy-3β-trifuoromethyl-5β-19-norpregnane, dipotassium salt]: the “% Protected” value in experiment [2] (PO, 10% hpbcd) is recorded as 25%.

In the case of `COCC1(O)CCC2(C)C(CCC3C2CCC2(C)C(C(=O)CS(=O)(=O)c4ccc(F)cc4)CCC32)C1` (stereo not drawn) [21-(4′-fluorophenyl)sulfonyl-3α-hydroxy-3β-methoxymethyl-5α-pregnan-20-one], in experiment [1], the IC50 turned out to be 0.049 µM and the “IMAX (maximum inhibition)” value was determined as 99%.

In the case of `COCC1(O)CCC2(C)C(CCC3C2CCC2(C)C(C(=O)CSc4ccc(F)cc4)CCC32)C1` (stereo not drawn) [21-(4′-fluorophenylthio)-3α-hydroxy-3β-methoxymethyl-5α-pregnan-20-one], in experiment [1], the IC50 stood at 0.176 µM and the “IMAX (maximum inhibition)” value is given as 97%.

As for `CC(C)CCC[C@@H](C)[C@H]1CC[C@H]2[C@@H]3CC=C4C[C@@H](O)CC[C@]4(C)[C@H]3CC[C@]12C` [Cholesterol, reference compound], the “IMAX (maximum inhibition)” value in experiment [1] came out at 0%.

With `CC(=O)[C@H]1CC[C@H]2[C@@H]3CCC4=CC(=O)CC[C@]4(C)[C@H]3CC[C@]12C` [Progesterone, reference compound], in experiment [1], the half-inhibitory concentration (IC50) was 5.2 µM and the “IMAX (maximum inhibition)” value turned out to be 100%.
